Data from ChEMBL document CHEMBL1201862, “PubChem BioAssay data set” (2004).
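Five compound concentrations were applied to cells in 96-well plates for 48 hours; endpoints were derived by simple linear interpolation of the resulting dose-response curve. At the GI50, growth is halved.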 Active and inactive are the calls of the source. Cut-off read from the data, not from the text of the source: active = GI50 up to about 1.1 µM and inactive = higher.

Legend:
Test in all cases: NCI-60 cell line screen, 48 h
CAKI-1 = tested on: CAKI-1
MCF7 = tested on: MCF7
786-0 = tested on: 786-0
SNB-19 = tested on: SNB-19
UACC-62 = tested on: UACC-62
HOP-62 = tested on: HOP-62
SN12C = tested on: SN12C
U-251 = tested on: U-251
NCI-H23 = tested on: NCI-H23
MDA-MB-435 = tested on: MDA-MB-435
RPMI-8226 = tested on: RPMI-8226
SK-MEL-2 = tested on: SK-MEL-2
SNB-75 = tested on: SNB-75
SW-620 = tested on: SW-620
PC-3 = tested on: PC-3
OVCAR-3 = tested on: OVCAR-3
SK-OV-3 = tested on: SK-OV-3
NCI-H522 = tested on: NCI-H522
Hs-578T = tested on: Hs-578T
SK-MEL-28 = tested on: SK-MEL-28
SF-295 = tested on: SF-295
A549 = tested on: A549
OVCAR-8 = tested on: OVCAR-8
SK-MEL-5 = tested on: SK-MEL-5
ACHN = tested on: ACHN
LOX IMVI = tested on: LOX IMVI
Malme-3M = tested on: Malme-3M
EKVX = tested on: EKVX
MDA-MB-231 = tested on: MDA-MB-231
MDA-N = tested on: MDA-N
COLO 205 = tested on: COLO 205
NCI/ADR-RES = tested on: NCI/ADR-RES
HL-60 = tested on: HL-60
T47D = tested on: T47D
UO-31 = tested on: UO-31
RXF 393 = tested on: RXF 393
BT-549 = tested on: BT-549
OVCAR-4 = tested on: OVCAR-4
A498 = tested on: A498
OVCAR-5 = tested on: OVCAR-5
HCC 2998 = tested on: HCC 2998
SF-268 = tested on: SF-268
DU-145 = tested on: DU-145
HCT-15 = tested on: HCT-15
HT-29 = tested on: HT-29
CCRF-CEM = tested on: CCRF-CEM
KM12 = tested on: KM12
M14 = tested on: M14
SF-539 = tested on: SF-539
NCI-H226 = tested on: NCI-H226
SR = tested on: SR
UACC-257 = tested on: UACC-257
TK-10 = tested on: TK-10
K562 = tested on: K562
HOP-92 = tested on: HOP-92
HCT-116 = tested on: HCT-116
MOLT-4 = tested on: MOLT-4
NCI-H460 = tested on: NCI-H460
IGROV-1 = tested on: IGROV-1

Measured: GI50

Cc1cc(C)c([S@@](=O)O[C@@H]2[C@H]3OC(C)(C)O[C@H]3O[C@@H]2[C@H]2COC(C)(C)O2)c(C)c1
42.9 µM: HCT-15
inactive: CAKI-1 2.16 µM | MCF7 16.7 µM | 786-0 26.9 µM | SNB-19 40 µM | UACC-62 22 µM | HOP-62 21.5 µM | SN12C 21 µM | U-251 20.2 µM | NCI-H23 31.6 µM | MDA-MB-435 18.2 µM | RPMI-8226 17.1 µM | SK-MEL-2 31.2 µM | SNB-75 21.8 µM | SW-620 20 µM | PC-3 19.9 µM | OVCAR-3 19.7 µM | SK-OV-3 36.6 µM | NCI-H522 8.65 µM | Hs-578T 37.2 µM | SK-MEL-28 29.1 µM | SF-295 29 µM | A549 29.4 µM | OVCAR-8 19.1 µM | SK-MEL-5 31.2 µM | ACHN 15.3 µM | LOX IMVI 14 µM | Malme-3M 25.5 µM | EKVX 20.4 µM | MDA-MB-231 26.7 µM | MDA-N 26.6 µM | COLO 205 16.3 µM | NCI/ADR-RES 22 µM | HL-60 4.18 µM | T47D 37.5 µM | UO-31 17.6 µM | RXF 393 19.3 µM | BT-549 15.1 µM | OVCAR-4 16.5 µM | A498 11.8 µM | OVCAR-5 29.2 µM | HCC 2998 22.9 µM | SF-268 31.9 µM | DU-145 29.1 µM | HT-29 29.7 µM | CCRF-CEM 25.2 µM | KM12 18.2 µM | M14 25.6 µM | SF-539 19.5 µM | NCI-H226 24.6 µM | SR 15.6 µM | UACC-257 19.5 µM | TK-10 25.5 µM | K562 25.9 µM | HOP-92 16.6 µM | HCT-116 24.8 µM | MOLT-4 17 µM | NCI-H460 24.8 µM | IGROV-1 4.24 µM

CCOC(=O)c1c(C)n(CCN2CCN(C)CC2)c2ccc(OC)cc12
28.8 µM: HCT-15
inactive: CAKI-1 32.3 µM | MCF7 33.6 µM | 786-0 38 µM | SNB-19 90.2 µM | UACC-62 17 µM | HOP-62 32.3 µM | SN12C 50.9 µM | U-251 31.8 µM | NCI-H23 > 100 µM | MDA-MB-435 19.9 µM | RPMI-8226 20.4 µM | SK-MEL-2 17.6 µM | SNB-75 24.8 µM | SW-620 37.5 µM | PC-3 34 µM | OVCAR-3 > 100 µM | SK-OV-3 72.6 µM | NCI-H522 28.6 µM | Hs-578T 55.5 µM | SK-MEL-28 16.5 µM | SF-295 34.8 µM | A549 > 100 µM | OVCAR-8 > 100 µM | SK-MEL-5 16.5 µM | ACHN 65 µM | LOX IMVI 16.6 µM | Malme-3M 21.9 µM | EKVX > 100 µM | MDA-MB-231 24.5 µM | MDA-N 19.6 µM | COLO 205 16.9 µM | NCI/ADR-RES 69.7 µM | HL-60 19.6 µM | T47D 34.4 µM | UO-31 35.1 µM | RXF 393 30.1 µM | BT-549 45.4 µM | OVCAR-4 48.6 µM | A498 22.5 µM | OVCAR-5 61.4 µM | HCC 2998 16.6 µM | SF-268 53.7 µM | DU-145 > 100 µM | HT-29 24.7 µM | CCRF-CEM 24 µM | KM12 44.3 µM | M14 16 µM | SF-539 30 µM | NCI-H226 29.7 µM | SR 20 µM | UACC-257 16.9 µM | TK-10 33.3 µM | K562 20.7 µM | HOP-92 14 µM | HCT-116 38.4 µM | MOLT-4 22.6 µM | NCI-H460 48.9 µM | IGROV-1 31.2 µM

CC(C)C1CC(CO)(CNc2nc(N)nc(Cl)c2/C=N\O)C1 (stereo not given)
inactive: CAKI-1 11.9 µM | 786-0 18.2 µM | SNB-19 20.1 µM | UACC-62 11.6 µM | HOP-62 21.9 µM | SN12C 23.2 µM | U-251 14.5 µM | MDA-MB-435 12.6 µM | RPMI-8226 2.64 µM | SK-MEL-2 12 µM | SNB-75 12.5 µM | SW-620 22.5 µM | PC-3 9.27 µM | OVCAR-3 13.7 µM | SK-OV-3 10.3 µM | NCI-H522 4.53 µM | Hs-578T 15.9 µM | SK-MEL-28 12.8 µM | A549 1.76 µM | OVCAR-8 15.5 µM | ACHN 8.51 µM | Malme-3M 3.22 µM | MDA-MB-231 12.6 µM | MDA-N 11.3 µM | COLO 205 2.37 µM | NCI/ADR-RES 3.42 µM | HL-60 4.6 µM | T47D 1.25 µM | UO-31 9.27 µM | RXF 393 18.8 µM | BT-549 11.7 µM | OVCAR-4 2.35 µM | A498 12.3 µM | OVCAR-5 20.1 µM | HCC 2998 3.94 µM | SF-268 22.4 µM | DU-145 15.6 µM | HT-29 4.34 µM | CCRF-CEM 13.6 µM | KM12 2.03 µM | M14 13.1 µM | SF-539 16.8 µM | NCI-H226 14.8 µM | TK-10 17.6 µM | HOP-92 12.5 µM | HCT-116 12.6 µM | MOLT-4 10.3 µM | IGROV-1 15.7 µM
15.7 µM: HCT-15
active: MCF7 0.687 µM | NCI-H23 0.519 µM | SF-295 1.01 µM | SK-MEL-5 0.71 µM | LOX IMVI 0.339 µM | EKVX 0.264 µM | SR 0.507 µM | UACC-257 0.656 µM | K562 0.0843 µM | NCI-H460 0.685 µM

Fc1c(F)c(F)c(CSc2nc3ccccc3[nH]2)c(F)c1F
inactive: CAKI-1 > 100 µM | MCF7 > 100 µM | SNB-19 > 100 µM | UACC-62 > 100 µM | HOP-62 > 100 µM | SN12C > 100 µM | U-251 > 100 µM | NCI-H23 > 100 µM | MDA-MB-435 > 100 µM | RPMI-8226 > 100 µM | SK-MEL-2 > 100 µM | SNB-75 > 100 µM | SW-620 > 100 µM | PC-3 > 100 µM | OVCAR-3 > 100 µM | SK-OV-3 > 100 µM | NCI-H522 > 100 µM | Hs-578T > 100 µM | SK-MEL-28 > 100 µM | SF-295 > 100 µM | A549 > 100 µM | OVCAR-8 > 100 µM | SK-MEL-5 > 100 µM | ACHN > 100 µM | LOX IMVI > 100 µM | Malme-3M > 100 µM | EKVX > 100 µM | MDA-MB-231 > 100 µM | MDA-N > 100 µM | COLO 205 > 100 µM | NCI/ADR-RES > 100 µM | HL-60 > 100 µM | T47D > 100 µM | UO-31 > 100 µM | RXF 393 > 100 µM | BT-549 > 100 µM | OVCAR-4 > 100 µM | A498 > 100 µM | OVCAR-5 > 100 µM | HCC 2998 > 100 µM | SF-268 > 100 µM | DU-145 > 100 µM | HT-29 > 100 µM | CCRF-CEM > 100 µM | KM12 > 100 µM | M14 > 100 µM | SF-539 > 100 µM | NCI-H226 > 100 µM | SR 59 µM | UACC-257 > 100 µM | TK-10 > 100 µM | K562 > 100 µM | HOP-92 47 µM | HCT-116 > 100 µM | MOLT-4 > 100 µM | NCI-H460 > 100 µM | IGROV-1 > 100 µM
> 100 µM: HCT-15
